From PubChem BioAssay AID1745844 (Carcinogenic Potency Database (CPDB), 2022) come the findings set out here.

Activity calls are given as the source filed them. The rule behind the calls is not given here.

The TD50 is the 50% point of the dose-response relation for the toxic effect studied.

In the data set the test system is rodent lifetime carcinogenesis bioassay, tumor incidence TD50. In words: chronic cancer bioassays in animals – CPDB, compiled studies (AID 1745844).

Take `Cc1ccc(S(=O)(=O)NC(=O)NN2CCCCCC2)cc1`: the carcinogen call is “negative (inactive)” (mouse, strain B6C3F1, females, in feed, site: any site (literature study), lesion: several types, types named in the paper, dosed 103 weeks, study length 104 weeks); “negative (inactive)” (mouse, strain B6C3F1, males, in feed, site: any site (literature study), lesion: several types, types named in the paper, dosed 103 weeks, study length 104 weeks); “negative (inactive)” (rat, strain Fischer 344, females, in feed, site: any site (literature study), lesion: several types, types named in the paper, dosed 103 weeks, study length 105 weeks); “negative (inactive)” (rat, strain Fischer 344, males, in feed, site: any site (literature study), lesion: several types, types named in the paper, dosed 103 weeks, study length 104 weeks). Further, for the setting “mouse, strain B6C3F1, males, in feed, site: lung, lesion: alveolar/bronchiolar adenoma + alveolar/bronchiolar carcinoma, dosed 103 weeks, study length 104 weeks”, the TD50 stood at 24600 mg/kg/day.
In the case of `O=S(=O)([O-])[O-].[Cd+2]`, the carcinogen call runs as follows: (hamster, strain Syrian Golden, females, inhaled, site: lung, lesion: one or several types, types not named, dosed 61 weeks, study length 76 weeks) “negative (inactive)”; (hamster, strain Syrian Golden, females, inhaled, site: lung, lesion: one or several types, types not named, dosed 64 weeks, study length 77 weeks) “negative (inactive)”; (hamster, strain Syrian Golden, males, inhaled, site: lung, lesion: one or several types, types not named, dosed 61 weeks, study length 103 weeks) “negative (inactive)”; (hamster, strain Syrian Golden, males, inhaled, site: lung, lesion: one or several types, types not named, dosed 64 weeks, study length 113 weeks) “negative (inactive)”; (mouse, strain NMRI, females, inhaled, site: lung, lesion: adenocarcinoma, dosed 69 weeks, study length 94 weeks) “negative (inactive)”; (mouse, strain NMRI, females, inhaled, site: lung, lesion: adenoma, dosed 42 weeks, study length 96 weeks) “negative (inactive)”. In addition, the carcinogen call was “negative (inactive)” (mouse, strain NMRI, females, inhaled, site: lung, lesion: adenoma, dosed 69 weeks, study length 94 weeks); “negative (inactive)” (mouse, strain NMRI, females, inhaled, site: lung, lesion: several types, types named in the paper, dosed 42 weeks, study length 96 weeks); “negative (inactive)” (mouse, strain NMRI, females, inhaled, site: lung, lesion: several types, types named in the paper, dosed 69 weeks, study length 94 weeks). Moreover, the TD50 is, setting by setting: (mouse, strain NMRI, females, inhaled, site: lung, lesion: adenocarcinoma, dosed 42 weeks, study length 96 weeks) 0.829 mg/kg/day (inactive); (rat, strain Wistar, females, inhaled, site: lung, lesion: adenocarcinoma, dosed 78 weeks, study length 126 weeks) 0.112 mg/kg/day; (rat, strain Wistar, females, inhaled, site: lung, lesion: adenosquamous carcinoma, dosed 78 weeks, study length 126 weeks) 0.112 mg/kg/day; (rat, strain Wistar, females, inhaled, site: lung, lesion: alveolar/bronchiolar adenoma, dosed 78 weeks, study length 126 weeks) 0.18 mg/kg/day; (rat, strain Wistar, females, inhaled, site: lung, lesion: several types, types named in the paper, dosed 78 weeks, study length 126 weeks) 0.0174 mg/kg/day; (rat, strain Wistar, females, inhaled, site: lung, lesion: squamous-cell tumor, dosed 78 weeks, study length 126 weeks) 0.381 mg/kg/day. The TD50 is, setting by setting: (rat, strain Wistar, males, inhaled, site: lung, lesion: adenocarcinoma, dosed 60 weeks, study length 134 weeks) 0.0537 mg/kg/day; (rat, strain Wistar, males, inhaled, site: lung, lesion: adenosquamous carcinoma, dosed 60 weeks, study length 134 weeks) 0.219 mg/kg/day; (rat, strain Wistar, males, inhaled, site: lung, lesion: alveolar/bronchiolar adenoma, dosed 60 weeks, study length 134 weeks) 0.219 mg/kg/day; (rat, strain Wistar, males, inhaled, site: lung, lesion: several types, types named in the paper, dosed 60 weeks, study length 134 weeks) 0.0289 mg/kg/day.
Regarding `CCCCCC`, the TD50 (mouse, strain B6C3F1, females, inhaled, site: liver, lesion: hepatocellular carcinoma, dosed 105 weeks, study length 105 weeks) is 84800 mg/kg/day; the TD50 (mouse, strain B6C3F1, females, inhaled, site: liver, lesion: several types, types named in the paper, dosed 105 weeks, study length 105 weeks) was 30300 mg/kg/day; the TD50 (mouse, strain B6C3F1, females, inhaled, site: pituitary gland, lesion: adenoma, dosed 105 weeks, study length 105 weeks) stood at 10300 mg/kg/day; the TD50 (mouse, strain B6C3F1, females, inhaled, site: pituitary gland, lesion: several types, types named in the paper, dosed 105 weeks, study length 105 weeks) turned out to be 9460 mg/kg/day. In addition, the carcinogen call runs as follows: (mouse, strain B6C3F1, males, inhaled, site: liver, lesion: several types, types named in the paper, dosed 105 weeks, study length 105 weeks) “negative (inactive)”; (rat, strain Fischer 344, females, inhaled, site: nasal mucosa, lesion: one or several types, types not named, dosed 105 weeks, study length 105 weeks) “negative (inactive)”; (rat, strain Fischer 344, males, inhaled, site: nasal mucosa, lesion: one or several types, types not named, dosed 105 weeks, study length 105 weeks) “negative (inactive)”.
On to `COc1ccc(N)c(C)c1`, for which the TD50 is, setting by setting: (mouse, strain B6C3F1, females, by gavage, site: any site (literature study), lesion: several types, types named in the paper, dosed 53 weeks, study length 93 weeks) 69.2 mg/kg/day; (mouse, strain B6C3F1, females, by gavage, site: liver, lesion: hepatocellular adenoma + hepatocellular carcinoma + neoplastic nodule, dosed 53 weeks, study length 93 weeks) 206 mg/kg/day; (mouse, strain B6C3F1, females, by gavage, site: liver, lesion: hepatocellular adenoma + hepatocellular carcinoma, dosed 53 weeks, study length 93 weeks) 206 mg/kg/day (inactive); (mouse, strain B6C3F1, females, by gavage, site: lung, lesion: alveolar/bronchiolar adenoma + alveolar/bronchiolar carcinoma, dosed 53 weeks, study length 93 weeks) 250 mg/kg/day; (mouse, strain B6C3F1, males, by gavage, site: any site (literature study), lesion: several types, types named in the paper, dosed 53 weeks, study length 93 weeks) 72.2 mg/kg/day; (rat, strain Fischer 344, females, by gavage, site: any site (literature study), lesion: several types, types named in the paper, dosed 77 weeks, study length 109 weeks) 51.5 mg/kg/day. Besides, the TD50 was 1100 mg/kg/day (rat, strain Fischer 344, females, by gavage, site: liver, lesion: hepatocellular adenoma + hepatocellular carcinoma + neoplastic nodule, dosed 77 weeks, study length 109 weeks); 52.7 mg/kg/day (rat, strain Fischer 344, females, by gavage, site: mammary gland, lesion: fibroadenoma, dosed 77 weeks, study length 109 weeks); 769 mg/kg/day (rat, strain Fischer 344, females, by gavage, site: urinary bladder, lesion: transitional-cell carcinoma, dosed 77 weeks, study length 109 weeks); 368 mg/kg/day (rat, strain Fischer 344, males, by gavage, site: any site (literature study), lesion: several types, types named in the paper, dosed 77 weeks, study length 109 weeks); 506 mg/kg/day (rat, strain Fischer 344, males, by gavage, site: liver, lesion: hepatocellular adenoma + hepatocellular carcinoma + neoplastic nodule, dosed 77 weeks, study length 109 weeks); 470 mg/kg/day (rat, strain Fischer 344, males, by gavage, site: urinary bladder, lesion: transitional-cell carcinoma, dosed 77 weeks, study length 109 weeks).
On to `C=CCN(CC(C)O)N=O` (stereo unspecified), for which the TD50 (rat, strain Fischer 344, females, in drinking water, site: esophagus, lesion: several types, types named in the paper, dosed 50 weeks, study length 65 weeks) was 4.67 mg/kg/day; the TD50 (rat, strain Fischer 344, females, in drinking water, site: liver, lesion: hepatocellular carcinoma, dosed 50 weeks, study length 65 weeks) is 1.38 mg/kg/day; the TD50 (rat, strain Fischer 344, females, in drinking water, site: nasal cavity, lesion: several types, types named in the paper, dosed 50 weeks, study length 65 weeks) is 0.877 mg/kg/day.
